≈ marks a conversion by molar mass, not a printed value. Read-outs that look alike come from different tables or passages of the source. One block for each compound: values may come before it.
Columns and labels:
hematologic malignancies = test system: hematologic malignancies; set-up: method as in PMID 13918321; details: DON combination with standard 6-mercaptopurine (6-MP) therapy; cited from earlier work
[1] = set-up: method as in PMID 13489662; details: 2 weeks or more of DON therapy; cited from earlier work
[2] = Metabolic stability in mouse plasma
Description: (§2) Briefly, intestinal tissue was homogenized over ice via probe sonication with 1:9 tissue to potassium phosphate buffer (0.1 M) conditions. Prodrugs were spiked in plasma or tissue homogenate at 10 μM final concentration with 0.2% DMSO v/v and incubated in triplicate for 0 and 60 min time points. At each time point, 100 μL of the sample was precipitated with 300 μL of methanol containing internal standard (IS; losartan, 0.5 μM). Precipitated samples were vortexed (30 s) and centrifuged at 10000g for 10 min at 4 °C. After centrifugation, 100 μL of supernatant was aliquoted and submitted for analysis. Prodrug disappearance over time was monitored by liquid chromatography–mass spectrometry (LC–MS) through peak area ratios between the analyte and internal standard.
(§3) Chromatographic analysis was performed on a Dionex ultra-high-performance LC system coupled with a Q Exactive Focus Orbitrap mass spectrometer (Thermo Fisher Scientific Inc., Waltham, MA). Separation was achieved using an Agilent Eclipse Plus column (100 × 2.1 mm i.d.; maintained at 35 °C) packed with a 1.8 μm C18 stationary phase. The mobile phase used was composed of 0.1% formic acid in acetonitrile and 0.1% formic acid in water with gradient elution, starting with 2.5% organic phase (from 0 to 0.25 min) and linearly increasing to 99% (from 0.25 to 1.25 min) and re-equilibrating to 2.5% by 4 min. The total run time for each analyte was 5 min. Pumps were operated at a flow rate of 0.4 mL/min. The mass spectrometer controlled by Xcalibur software 4.0.27.13 (Thermo Scientific) was operated with an HESI ion source in positive ionization mode for all compounds. Compounds were identified in the full-scan mode with m/z ranging from 75 to 1125.

[3] = Chemical (aqueous) stability in buffer pH 7.4; format: physicochemical; details: 10 μM, pH 7.4 PBS, 37 °C, 24 h, HRMS/LCMS
Description: (§1) The aqueous solubility was determined as previously reported with minor modifications.[48] Briefly, an excess amount of P11 or DRP-104 was added to PBS buffer (pH 7.4) and sonicated for 1 h at 37 °C to ensure saturation. After 1 h, the solution was filtered (0.45 μm PTFE), and the filtrate was diluted appropriately, and the concentration of each analyte was determined via LC–MS. Chemical stabilities of DRP-104 and P11 were done as previously described[18] with modifications. For chemical stability, prodrugs were spiked (10 μM) in buffer at pH 7.4 and incubated at 37 °C for 24 h. Prodrug disappearance was monitored using the developed HRMS methods.

[4] = test system: P493B lymphoma cells suspended in human plasma; assay: Human tumor cell to plasma partitioning assay; format: cell-based; details: 20 μM; 1 h; human plasma fraction
Description: Human tumor cell to plasma partitioning assays were conducted as we have previously described.[25] Briefly, P493B lymphoma cells were grown at 37 °C, in a humidified atmosphere with 5% CO2. Cell confluency was estimated, and cells were harvested after achieving >80% confluency and centrifuged at 200g for 5 min at 25 °C. The obtained cell pellet was resuspended in 20 mL of Dulbecco’s phosphate-buffered saline (DPBS; Gibco, USA, cat. no. 14-190-144) maintained at 37 °C, and cell count was determined using an automated cell counter (Bio-Rad, USA). Cell suspension in DPBS was further centrifuged at 200g for 5 min at 25 °C, and the cell pellet was resuspended in human plasma (Innovative Research, USA) for partitioning assessment. The final cell density after resuspending in plasma was 10 million cells/mL of plasma. Partitioning assessment was performed in triplicate. Preincubated (37 °C for 5 min) cell–plasma suspension was spiked with DRP-104 or P11 at a final concentration of 20 μM and incubated at 37 °C for 1 h. Following incubation, a 1 mL aliquot of cell–plasma suspension was centrifuged at 1000g for 5 min at 4 °C, and supernatant plasma as well as the cell pellet was collected and stored at −80 °C until bioanalysis. Both plasma and cell pellet fractions were analyzed for intact prodrug and DON levels. […]

[5] = Metabolic stability in mouse intestinal homogenate (GIh)
Description: as §2, §3

[6] = Aqueous solubility assay in PBS buffer (pH 7.4); format: physicochemical; details: PBS buffer pH 7.4; 37 °C; 1 h
Description: as §1

[7] = set-up: method as in PMID 36383674; details: cited from earlier work
P493B lymphoma cells = assay: Cell viability assay; format: cell-based; details: Homo sapiens, 72 h, 72 h incubation
Description: Cell proliferation assays were performed as we have previously described.[19] Briefly, P493B lymphoma cells were plated in 96-well plates at a density of 20 000 cells/well in a final volume of 100 μL of growth media. P11, or DRP-104, was added to cells in half-log serial dilutions with a final concentration of 0.2% DMSO. Cells were allowed to proliferate for 72 h, and thereafter, 20 μL of CellTiter 96 AQueous (Promega no. 3580) was added per well and incubated for 2 h. Absorbance was measured at 490 nm. Relative cell viability was calculated from the difference between untreated cell wells (100%) and media well without cells (0%).

[8] = set-up: method as in printed; details: background statement; ref not given; cited from earlier work
[9] = CES1–/–, mouse, 1 h, 10 μM
Description: as §2, §3

in vitro [10] = details: CES1–/–, mouse, tissue homogenate
Description: as §2, §3

[11] = CES1–/–, mouse, 1 h, 10 μM; remark: listed apart in the source
Description: as §2, §3

in vitro [12] = details: CES1–/–, mouse, plasma
Description: as §2, §3

[13] = supplementary CSV, unit not given, matches Table 1 % remaining at 1 h, in %

SMILES: [N-]=[N+]=CC(=O)CC[C@H](N)C(=O)O [DON, 6-Diazo-5-oxo-L-norleucine]
patients with complete bone marrow remissions (hematologic malignancies): 42%
patients with disease stability or regression [1]: 66%

remaining at 1 h, 10 µM ([2]; CES1–/–, mouse, plasma): 94 ± 1%
Plasma [2, 13]: 94 ± 1
chemical stability in buffer [3]: remained intact without any degradation
chemical stability in buffer ([3]; listed as DRP 104): no degradation
remaining at 1 h, 10 µM ([5]; CES1–/–, mouse, intestinal homogenate): 0%
Intestinal homogenate [5, 13]: 0 ± 0
solubility at 1 h [6]: 240 ± 30 µg/mL (≈ 544 µM)
EC50 (P493B lymphoma cells): ~1000 nM
SMILES: CC(=O)N[C@@H](Cc1c[nH]c2ccccc12)C(=O)N[C@@H](CCC(=O)C=[N+]=[N-])C(=O)OC(C)C [DRP-104, isopropyl (S)-2-((S)-2-acetamido-3-(1H-indol-3-yl)-propanamido)-6-diazo-5-oxo-hexanoate, reference compound]
stability and DON release in human plasma [4]: stable in human plasma with no DON release
fold greater delivery of DON to tumor versus GI tissues [7]: 11
aqueous solubility (intrinsic) [8]: < 1000 µg/mL

SMILES: CC(C)(C)OC(=O)[C@H](CCC(=O)C=[N+]=[N-])NC(=O)[C@H](Cc1c[nH]c2ccccc12)NC(=O)C12CCN(CC1)CC2 [Prodrug P8, tert-Butyl (S)-2-((S)-3-(1H-Indol-3-yl)-2-(quinuclidine-4-carboxamido)propanamido)-6-diazo-5-oxohexanoate]
Plasma [9]: 106 ± 2
remaining at 1 h, 10 µM (in vitro [10]): 71%
Intestinal homogenate [11]: 71 ± 0
remaining at 1 h, 10 µM (in vitro [12]): 106 ± 2%

From publication PMC10683027, “Discovery of tert-Butyl Ester Based 6-Diazo-5-oxo-L-norleucine Prodrugs for Enhanced Metabolic Stability and Tumor Delivery” (Journal of Medicinal Chemistry, 2023)
